Results published in ChEMBL document CHEMBL5321213, “Nicolaioidesin C: An Antiausterity Agent Shows Promising Antitumor Activity in a Pancreatic Cancer Xenograft Mouse Model” (J Nat Prod, 2023).

Legend:
MIA PaCa-2 [1] = assay: Antitumor activity against human MIA PaCa-2 cells xenografted in athymic BALB/c-nu mouse assessed as fold change in glutamic acid level in tumor at 2 mg/kg/day, ip administered five times per week for 4 weeks by LC-MS analysis; assay type: functional
MIA PaCa-2 [2] = assay: Antitumor activity against human MIA PaCa-2 cells xenografted in athymic BALB/c-nu mouse assessed as fold change in cytidine level in tumor at 10 mg/kg/day, ip administered five times per week for 4 weeks by LC-MS analysis; assay type: functional
MIA PaCa-2 [3] = assay: Antitumor activity against human MIA PaCa-2 cells xenografted in athymic BALB/c-nu mouse assessed as fold change in 2'-deoxycytidine level in tumor at 2 mg/kg/day, ip administered five times per week for 4 weeks by LC-MS analysis; assay type: functional
[4] = Toxicity in athymic BALB/c-nu mouse xenografted with human MIA PaCa-2 cells assessed as body weight loss at 2 to 10 mg/kg/day, ip administered five times per week for 4 weeks; assay type: organism-based; conditions: in vivo, 672 h, dose 2-10 mg/kg/day
MIA PaCa-2 [5] = assay: Antitumor activity against human MIA PaCa-2 cells xenografted in athymic BALB/c-nu mouse assessed as fold change in cytidine 5'-monophosphate level in tumor at 10 mg/kg/day, ip administered five times per week for 4 weeks by LC-MS analysis; assay type: functional
MIA PaCa-2 [6] = assay: Inhibition of Akt/mTOR signaling pathway in human MIA PaCa-2 cells in nutrient-deprived medium assessed as reduction in AKT phosphorylation at S473 residue measured after 6 hrs by Western blot analysis; assay type: cell-based; conditions: dose 5-20 µM
MIA PaCa-2 [7] = assay: Antitumor activity against human MIA PaCa-2 cells xenografted in athymic BALB/c-nu mouse assessed as fold change in 2,6-diaminopimelicacid level in tumor at 2 mg/kg/day, ip administered five times per week for 4 weeks by LC-MS analysis; assay type: functional
MIA PaCa-2 [8] = assay: Antitumor activity against human MIA PaCa-2 cells xenografted in athymic BALB/c-nu mouse assessed as fold change in N-acetyl-L-glutamicacid level in tumor at 10 mg/kg/day, ip administered five times per week for 4 weeks by LC-MS analysis; assay type: functional
MIA PaCa-2 [9] = assay: Antimetastatic activity in human MIA PaCa-2 cells in DMEM media assessed as inhibition of colony formation at 10 uM incubated for 24 hrs followed by replacement with fresh medium and measured after 10 days by crystal violet staining-based assay relative to control; assay type: functional

COc1cc(O)c(C(=O)[C@@H]2CC=C(CCC=C(C)C)C[C@H]2c2ccccc2)c(O)c1
fold change (FC) (MIA PaCa-2 [1]): 0.41 | fold change (FC) (MIA PaCa-2 [2]): 0.35 | fold change (FC) (MIA PaCa-2 [3]): 0.63 | Activity [4]: Non-Toxic | fold change (FC) (MIA PaCa-2 [5]): 0.31 | inhibition (MIA PaCa-2 [6]): Dose-Dependent Effect | fold change (FC) (MIA PaCa-2 [7]): 0.53 | fold change (FC) (MIA PaCa-2 [8]): 0.28 | inhibition at 10 µM (MIA PaCa-2 [9]): 88%
